Measured values taken from patent publication US20070043049A1, “Substituted heterocyclic diarylamine analogues” (Neurogen Corporation, priority 2003, published 2007).

Each molecule was assayed against T1, human capsaicin receptor (Homo sapiens, UniProt Q8NER1) (assay: Calcium mobilization assay, determination of antagonist activity (Example 6)). Conditions: 50% decrease in fluorescence response of cells expressing human capsaicin receptor exposed to capsaicin.
T1 construct: pBK-CMV expression construct encoding the full length human capsaicin receptor; expressed in transfected cells
T1 sequence (Q8NER1 whole entry): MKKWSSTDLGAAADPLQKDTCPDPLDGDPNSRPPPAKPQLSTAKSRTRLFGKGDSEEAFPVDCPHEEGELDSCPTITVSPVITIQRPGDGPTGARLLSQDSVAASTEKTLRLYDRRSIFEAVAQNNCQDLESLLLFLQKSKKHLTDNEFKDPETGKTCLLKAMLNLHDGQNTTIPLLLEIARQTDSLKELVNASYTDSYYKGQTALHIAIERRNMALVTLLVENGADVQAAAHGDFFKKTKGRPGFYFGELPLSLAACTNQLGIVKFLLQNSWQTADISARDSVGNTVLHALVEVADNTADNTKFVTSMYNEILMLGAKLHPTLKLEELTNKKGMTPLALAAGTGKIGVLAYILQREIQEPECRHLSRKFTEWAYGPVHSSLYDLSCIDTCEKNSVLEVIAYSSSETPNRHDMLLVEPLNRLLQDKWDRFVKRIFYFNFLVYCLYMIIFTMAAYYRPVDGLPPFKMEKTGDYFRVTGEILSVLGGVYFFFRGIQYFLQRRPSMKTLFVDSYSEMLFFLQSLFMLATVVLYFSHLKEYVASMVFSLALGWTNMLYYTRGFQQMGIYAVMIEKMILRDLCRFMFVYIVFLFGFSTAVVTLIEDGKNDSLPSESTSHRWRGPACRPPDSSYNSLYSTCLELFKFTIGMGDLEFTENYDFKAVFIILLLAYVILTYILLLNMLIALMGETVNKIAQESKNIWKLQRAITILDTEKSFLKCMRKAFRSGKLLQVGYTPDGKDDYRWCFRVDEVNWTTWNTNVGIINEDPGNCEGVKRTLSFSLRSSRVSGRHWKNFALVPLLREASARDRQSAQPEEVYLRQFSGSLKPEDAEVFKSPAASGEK
Format: cell-based
Summary of the method: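 HEK293 cells stably expressing full-length human capsaicin receptor, Fluo-3 AM loaded, preincubated with compound 0.5–6 h at room temperature in KRH buffer pH 7.4. Challenged with capsaicin at its EC50; FLIPR fluorescence read. IC50 is concentration halving the capsaicin-induced calcium response.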
For Fc1ccc(Nc2cc(N3CCOCC3)nc(N3CCN(c4ncccc4C(F)(F)F)CC3)n2)cc1 [Compound 105, (4-Fluoro-phenyl)-{6-morpholin-4-yl-2-[4-(3-trifluoromethyl-pyridin-2-yl)-piperazin-1-yl]-pyrimidin-4-yl}-amine], the IC50 was at most 1000 nM. Work on Cc1ccc(Nc2cc(N3CCOCC3)nc(N3CCN(c4ncccc4C(F)(F)F)CC3)n2)cc1 [Compound 106, {6-Morpholin-4-yl-2-[4-(3-trifluoromethyl-pyridin-2-yl)-piperazin-1-yl]-pyrimidin-4-yl}-p-tolyl-amine] yielded an IC50 of at most 1000 nM. Work on CCN(CC)c1nc(Nc2ccc(C#N)cc2)nc(N2CCN(c3ncccc3Cl)CC2)n1 [Compound 107, 4-{4-[4-(3-Chloro-pyridin-2-yl)-piperazin-1-yl]-6-diethylamino-[1,3,5]triazin-2-ylamino}-benzonitrile] yielded an IC50 of at most 1000 nM. For CCN(CC)c1nc(Nc2cc(OC)ccc2OC)nc(N2CCN(c3ccccn3)CC2)n1 [Compound 108, N-(2,5-Dimethoxy-phenyl)-N′,N′-diethyl-6-(4-pyridin-2-yl-piperazin-1-yl)-[1,3,5]triazine-2,4-diamine], the IC50 was at most 1000 nM. COCc1nc(Nc2ccc(F)c(F)c2)cc(N2CCN(c3ncccc3C(F)(F)F)CC2)n1 [Compound 109, (3,4-Difluoro-phenyl)-{2-methoxymethyl-6-[4-(3-trifluoromethyl-pyridin-2-yl)-piperazin-1-yl]-pyrimidin-4-yl}-amine] was tested, and the IC50 was at most 1000 nM. OCc1nc(Nc2ccc(F)c(F)c2)cc(N2CCN(c3ncccc3C(F)(F)F)CC2)n1 [Compound 110, {4-(3,4-Difluoro-phenylamino)-6-[4-(3-trifluoromethyl-pyridin-2-yl)-piperazin-1-yl]-pyrimidin-2-yl}-methanol] showed an IC50 of at most 1000 nM. CCN(CC)Cc1nc(Nc2ccc(F)c(F)c2)cc(N2CCN(c3ncccc3C(F)(F)F)CC2)n1 [Compound 111, {2-Diethylaminomethyl-6-[4-(3-trifluoromethyl-pyridin-2-yl)-piperazin-1-yl]-pyrimidin-4-yl}-(3,4-difluoro-phenyl)-amine] gave an IC50 of at most 1000 nM. With Fc1ccc(Nc2cc(N3CCN(c4ncccc4C(F)(F)F)CC3)nc(CN3CCOCC3)n2)cc1F [Compound 112, (3,4-Difluoro-phenyl)-{2-morpholin-4-ylmethyl-6-[4-(3-trifluoromethyl-pyridin-2-yl)-piperazin-1-yl]-pyrimidin-4-yl}-amine] the IC50 was at most 1000 nM. C[C@@H]1CN(Cc2nc(Nc3ccc(F)c(F)c3)cc(N3CCN(c4ncccc4C(F)(F)F)CC3)n2)C[C@H](C)O1 [Compound 113, (3,4-Difluoro-phenyl)-{2-(2,6-dimethyl-morpholin-4-ylmethyl)-6-[4-(3-trifluoromethyl-pyridin-2-yl)-piperazin-1-yl]-pyrimidin-4-yl}-amine] showed an IC50 of at most 1000 nM. In the case of CCCCc1ccc(-c2nc(Nc3ccc(C(F)(F)F)cc3)nc(N3CCN(c4ncccc4Cl)C[C@H]3C)n2)cc1 [Compound 115, {4-(4-Butyl-phenyl)-6-[4-(3-chloro-pyridin-2-yl)-2-methyl-piperazin-1-yl]-[1,3,5]triazin-2-yl}-(4-trifluoromethyl-phenyl)-amine], the IC50 is reported as at most 1000 nM. In the case of COc1ccc(-c2nc(Nc3ccc(C(F)(F)F)cc3)nc(N3CCN(c4ncccc4Cl)C[C@H]3C)n2)c(OC)c1 [Compound 116, [4-[4-(3-Chloro-pyridin-2-yl)-2-methyl-piperazin-1-yl]-6-(2,4-dimethoxy-phenyl)-[1,3,5]triazin-2-yl]-(4-trifluoromethyl-phenyl)-amine], the IC50 is reported as at most 1000 nM.
